The values that follow come from patent US7375088B2, “Polyene polyketides, processes for their production and their use as a pharmaceutical” (Thallion Pharmaceuticals Inc., priority 2003, dated 2008).

Molecules are shown by their SMILES.

One assay concerns Aspergillus fumigatus. Briefly: Disk diffusion assay (MEC and zone of inhibition). As to conditions: for ZOI (zone of inhibition of fungal growth calculated for each MEC): at the MEC; for ZOI (zone of inhibition of fungal growth calculated for each MEC) / MEC (minimum effective concentration): 24 hours of incubation; for MEC (minimum effective concentration): disk diffusion. The format is cell-based.

In the next assay the test system is Aspergillus flavus. Briefly: Disk diffusion assay (MEC and zone of inhibition). The format is cell-based. The conditions noted are these: for ZOI (zone of inhibition of fungal growth calculated for each MEC): at the MEC; for ZOI (zone of inhibition of fungal growth calculated for each MEC) / MEC (minimum effective concentration): 24 hours of incubation; for MEC (minimum effective concentration): disk diffusion.

Take `CCC(C)n1ncn(-c2ccc(N3CCN(c4ccc(OCC5COC(Cn6cncn6)(c6ccc(Cl)cc6Cl)O5)cc4)CC3)cc2)c1=O` (centres unmarked) [Itraconazole]: in the assay on Aspergillus fumigatus, the “ZOI (zone of inhibition of fungal growth calculated for each MEC)” value is 1.7 mm and the “MEC (minimum effective concentration)” value was determined as 1.0 µg/mL. For the same compound, in the assay on Aspergillus flavus, the “ZOI (zone of inhibition of fungal growth calculated for each MEC)” value was 1.7 mm and the “MEC (minimum effective concentration)” value worked out at 0.5 µg/mL.
With `OC(Cn1cncn1)(Cn1cncn1)c1ccc(F)cc1F` [Fluconazole], in the assay on Aspergillus fumigatus, the “antifungal activity in disk diffusion assay” value was “inactive”, the “ZOI (zone of inhibition of fungal growth calculated for each MEC)” value was 0 mm and the “MEC (minimum effective concentration)” value worked out at 0 µg/mL. In the assay on Aspergillus flavus, the “antifungal activity in disk diffusion assay” value is “inactive”, the “ZOI (zone of inhibition of fungal growth calculated for each MEC)” value was 0 mm and the “MEC (minimum effective concentration)” value came to 0 µg/mL.
Consider `CC[C@H](C)C[C@H](C)CCCCCCCCC(=O)N[C@H]1C[C@@H](O)[C@@H](NCCN)NC(=O)[C@@H]2[C@@H](O)CCN2C(=O)[C@H]([C@H](O)CCN)NC(=O)[C@H]([C@H](O)[C@@H](O)c2ccc(O)cc2)NC(=O)[C@@H]2C[C@@H](O)CN2C(=O)[C@H]([C@@H](C)O)NC1=O` [Casponfungin], for which, in the assay with Aspergillus fumigatus, the “ZOI (zone of inhibition of fungal growth calculated for each MEC)” value is 0.7 mm and the “MEC (minimum effective concentration)” value came to 2.5 µg/mL. Further, in the assay on Aspergillus flavus, the “ZOI (zone of inhibition of fungal growth calculated for each MEC)” value is recorded as 0.7 mm and the “MEC (minimum effective concentration)” value amounted to 2.5 µg/mL.
